The values that follow come from ChEMBL document CHEMBL1201862, “PubChem BioAssay data set” (2004).

Some test systems named below: BT-549; NCI-H226; OVCAR-5; TK-10; SN12C; NCI-H522; HCT-15; A498; CCRF-CEM; SF-539; MOLT-4; NCI/ADR-RES; SNB-75; MDA-MB-435; 786-0; M14; MDA-N; NCI-H23; T47D; OVCAR-4.
Holding throughout (assay): DTP human tumour cell line panel, 48 h

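A five-concentration, 48-hour dose response in 96-well plates underlies each endpoint, interpolated linearly between surrounding concentrations. GI50: concentration for 50% inhibition of growth.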 Calls of active or inactive are those of the source. No stated cut-off is given here; in the data, active = GI50 up to about 1.1 µM and inactive = higher. A value given as a limit tells only on which side of the number the result lay.

Regarding `O=C(O)C1CCCCC1C(=O)Nc1nc2ccccc2[nH]1` (stereo not given), the GI50 with BT-549, with NCI-H226, in the test with OVCAR-5, in the test on TK-10, in the test on SN12C and in the test on NCI-H522 was > 100 µM (inactive) in each case. Also, the GI50 with HCT-15 was greater than 100 µM; in the test on A498 it was > 100 µM (inactive); with CCRF-CEM, > 100 µM (inactive); with SF-539, > 100 µM (inactive); in the test on MOLT-4, 39.5 µM (inactive); in the test with NCI/ADR-RES, > 100 µM (inactive). For the same compound, the GI50 in the test with SNB-75, in the test on MDA-MB-435, in the test on 786-0, in the test with M14, in the test with MDA-N and in the test with NCI-H23 was > 100 µM (inactive) throughout. The GI50 with T47D and in the test with OVCAR-4 was > 100 µM (inactive) in each case.

For the compound `CSC1=C(C#N)C(=S)N=C(N)C1C(=O)Nc1ccc(C)cc1` (stereo not given), the GI50 in the test with BT-549 is > 100 µM (inactive); with NCI-H226 it was 60.1 µM (inactive); in the test on OVCAR-5 it was > 100 µM (inactive); in the test with TK-10, > 100 µM (inactive); in the test on SN12C, > 100 µM (inactive); in the test with NCI-H522, 32 µM (inactive). Further, the GI50 in the test with HCT-15 was greater than 100 µM; with A498, 68.9 µM (inactive); in the test with CCRF-CEM, > 100 µM (inactive); with SF-539, > 100 µM (inactive); with MOLT-4 it was > 100 µM (inactive); in the test with NCI/ADR-RES it was > 100 µM (inactive). In addition, the GI50 in the test on SNB-75, in the test with MDA-MB-435, in the test with 786-0, in the test with M14, in the test with MDA-N and with NCI-H23 was > 100 µM (inactive) each time. For the same compound, the GI50 in the test on T47D and with OVCAR-4 was > 100 µM (inactive) each time.

In the case of `N#Cc1c(C#N)c(SSc2c(C#N)c(C#N)c(N)n2-c2cccc3ccccc23)n(-c2cccc3ccccc23)c1N`, the GI50 in the test with BT-549 was 5.83 µM (inactive); in the test with NCI-H226, 30.2 µM (inactive); with OVCAR-5, 24.2 µM (inactive); with TK-10, 5.77 µM (inactive); with SN12C it was 12 µM (inactive); in the test on NCI-H522, 1.5 µM (inactive). Further, the GI50 with HCT-15 is 1.98 µM; in the test with A498, 30.2 µM (inactive); in the test with CCRF-CEM, 1.97 µM (inactive); in the test on SF-539 it was 15.7 µM (inactive); with MOLT-4 it was 2.63 µM (inactive); in the test with NCI/ADR-RES, 25.1 µM (inactive). The GI50 was 5.62 µM (inactive) with SNB-75; 8.77 µM (inactive) with MDA-MB-435; 1.98 µM (inactive) in the test with 786-0; 3.08 µM (inactive) in the test on M14; 6.11 µM (inactive) with MDA-N; 11.2 µM (inactive) in the test on NCI-H23. Also, the GI50 in the test on T47D was 1.92 µM (inactive); in the test with OVCAR-4 it was 6.01 µM (inactive).

Turning to `C[C@]12CC[C@H]3[C@@H](CC=C4C[C@@H](O)CC[C@@]43C)[C@@H]1C/C(=C\c1ccncc1)[C@@H]2O`, the GI50 in the test on BT-549 is 3.51 µM (inactive); with NCI-H226, 17.7 µM (inactive); in the test with OVCAR-5, 32.7 µM (inactive); in the test with TK-10, 39.3 µM (inactive); with SN12C, 17.2 µM (inactive); in the test with NCI-H522 it was 16.3 µM (inactive). Also, the GI50 in the test with HCT-15 was 20.9 µM; with A498, 13.9 µM (inactive); with CCRF-CEM, 19.5 µM (inactive); in the test on SF-539 it was 16.9 µM (inactive); in the test on MOLT-4, 9.77 µM (inactive); with NCI/ADR-RES, 17.3 µM (inactive). In addition, the GI50 in the test on SNB-75 was 27.1 µM (inactive); with MDA-MB-435, 19.7 µM (inactive); in the test on 786-0 it was 21.1 µM (inactive); with M14, 16.5 µM (inactive); with MDA-N, 21.8 µM (inactive); with NCI-H23, 13.7 µM (inactive). Moreover, the GI50 in the test with T47D was 12.1 µM (inactive); in the test on OVCAR-4 it was 12.2 µM (inactive).

For `O=C(CCc1ccccc1)n1cccc1CO`, the GI50 in the test with BT-549, in the test on NCI-H226, with OVCAR-5, with TK-10, with SN12C and in the test with NCI-H522 was > 100 µM (inactive) throughout. The GI50 in the test on HCT-15 is greater than 100 µM; in the test on A498 it was > 100 µM (inactive); with CCRF-CEM it was > 100 µM (inactive); with SF-539 it was > 100 µM (inactive); in the test with MOLT-4, > 100 µM (inactive); with NCI/ADR-RES, > 100 µM (inactive). Further, the GI50 with SNB-75, with MDA-MB-435, with 786-0, with M14, in the test with MDA-N and in the test with NCI-H23 was > 100 µM (inactive) in each case. Also, the figures for the GI50 with T47D and in the test on OVCAR-4 were 96.4 µM (inactive) and > 100 µM (inactive), respectively.

With `Cn1cnc2c(NCc3ccccc3)nc(NCCO)nc21` [OLOMOUCINE], the GI50 is 53.1 µM (inactive) in the test on BT-549; 51.3 µM (inactive) in the test with NCI-H226; 53 µM (inactive) in the test with OVCAR-5; 63.8 µM (inactive) with TK-10; 90.2 µM (inactive) in the test on SN12C; 51.4 µM (inactive) in the test on NCI-H522. In addition, the GI50 with HCT-15 is 41.3 µM; in the test on A498, 103 µM (inactive); in the test with CCRF-CEM it was 54.6 µM (inactive); in the test with SF-539, 42.2 µM (inactive); in the test with MOLT-4, 70.1 µM (inactive); in the test with NCI/ADR-RES, > 93.8 µM (inactive). Moreover, the GI50 was 21.3 µM (inactive) in the test on SNB-75; 78.7 µM (inactive) with MDA-MB-435; 60.7 µM (inactive) with 786-0; 78.9 µM (inactive) in the test on M14; 79.4 µM (inactive) in the test with MDA-N; 59.6 µM (inactive) in the test on NCI-H23. Moreover, the GI50 was 50.5 µM (inactive) in the test on T47D and 94.2 µM (inactive) in the test with OVCAR-4.

As to `Nc1nc2[nH]cnc2c(=S)[nH]1` [THIOGUANINE], the GI50 in the test on BT-549 was 3.04 µM (inactive); in the test on NCI-H226, 4.41 µM (inactive); in the test with OVCAR-5, 0.692 µM (active); in the test on TK-10, 0.962 µM (active); in the test with SN12C it was 1.31 µM (inactive); in the test on NCI-H522, 0.895 µM (active). Further, the GI50 with HCT-15 is 1.08 µM; with A498 it was 6.68 µM (inactive); in the test on CCRF-CEM it was 0.169 µM (active); in the test on SF-539, 1.05 µM (active); with MOLT-4, 0.269 µM (active); with NCI/ADR-RES it was 0.671 µM (active). For the same compound, the GI50 in the test on SNB-75 was 1.48 µM (inactive); in the test on MDA-MB-435, 0.851 µM (active); in the test with 786-0 it was 0.796 µM (active); with M14 it was 0.56 µM (active); with MDA-N, 1.01 µM (active); with NCI-H23, 1.1 µM (active). The figures for the GI50 in the test on T47D and with OVCAR-4 were 2.07 µM (inactive) and 1.45 µM (inactive), respectively.

Regarding `C=C1C(=O)O[C@H]2[C@H]([C@H](C)CCCC(C)=O)O[C@H]([C@@]3(C)CCC(=O)O3)C[C@@H]12`, the GI50 in the test with BT-549 is 31.8 µM (inactive); in the test on NCI-H226, 31.3 µM (inactive); in the test on OVCAR-5 it was > 100 µM (inactive); in the test with TK-10 it was 17.7 µM (inactive); in the test with SN12C, 92 µM (inactive); with NCI-H522, 26.4 µM (inactive). Also, the GI50 with HCT-15 was 42 µM; in the test with A498, > 100 µM (inactive); with CCRF-CEM, 26.9 µM (inactive); in the test with SF-539, 59.8 µM (inactive); with MOLT-4, 78.7 µM (inactive); in the test with NCI/ADR-RES it was > 100 µM (inactive). Further, the GI50 with SNB-75 was > 100 µM (inactive); in the test on MDA-MB-435 it was 38.5 µM (inactive); in the test with 786-0, 35.2 µM (inactive); with M14, 33.9 µM (inactive); in the test on MDA-N it was 53.1 µM (inactive); in the test with NCI-H23 it was 43.4 µM (inactive). Moreover, the GI50 was 76 µM (inactive) with T47D and > 100 µM (inactive) with OVCAR-4.

As for `O=[N+]([O-])/C(C(Cl)=C(Cl)Cl)=C(/Br)SCc1ccccc1`, the GI50 in the test on BT-549 is 2 µM (inactive); in the test with NCI-H226, 6.07 µM (inactive); in the test with OVCAR-5, 5.71 µM (inactive); in the test on TK-10, 3.08 µM (inactive); with SN12C it was 2.27 µM (inactive); in the test with NCI-H522 it was 1.71 µM (inactive). For the same compound, the GI50 with HCT-15 is 2.07 µM; with A498, 7.01 µM (inactive); in the test on CCRF-CEM, 0.277 µM (active); in the test on SF-539, 7.4 µM (inactive); in the test with MOLT-4, 0.26 µM (active); in the test with NCI/ADR-RES, 3.29 µM (inactive). For the same compound, the GI50 was 2.56 µM (inactive) in the test on SNB-75; 1.47 µM (inactive) in the test on MDA-MB-435; 2.1 µM (inactive) in the test on 786-0; 2.4 µM (inactive) in the test on M14; 1.87 µM (inactive) in the test on MDA-N; 3.22 µM (inactive) with NCI-H23. Moreover, the GI50 is 2.88 µM (inactive) in the test with T47D and 3.3 µM (inactive) with OVCAR-4.

Consider `Cc1cc(C)c2c(=O)n(CN3CCC(O)(c4ccccc4)CC3)sc2n1`, for which the GI50 in the test on BT-549 was 97.3 µM (inactive); in the test with NCI-H226 it was > 100 µM (inactive); in the test on OVCAR-5, 23 µM (inactive); in the test on TK-10, 11.6 µM (inactive); in the test with SN12C, 25.7 µM (inactive); with NCI-H522, 11.8 µM (inactive). In addition, the GI50 in the test with HCT-15 was 34.7 µM; in the test with A498, 78.3 µM (inactive); with CCRF-CEM, 19.4 µM (inactive); in the test with SF-539, 21.2 µM (inactive); in the test on MOLT-4, 28.1 µM (inactive); in the test with NCI/ADR-RES, 53.1 µM (inactive). Further, the GI50 is 19.2 µM (inactive) in the test with SNB-75; 20.4 µM (inactive) in the test on MDA-MB-435; 17.1 µM (inactive) in the test with 786-0; 50 µM (inactive) with M14; 19.6 µM (inactive) in the test on MDA-N; 27.8 µM (inactive) with NCI-H23. Also, the GI50 in the test with T47D is 80.9 µM (inactive); in the test on OVCAR-4, 29.4 µM (inactive).

Usually GI50 stands for the concentration that inhibits growth by half.
